Test results published in ChEMBL document CHEMBL2146447, “Synthesis and antimicrobial activity of amido linked pyrrolyl and pyrazolyl-oxazoles, thiazoles and imidazoles” (2011).
Active and inactive are the calls of the source. The calls are words filed in the database; no cut-off is given here.

Columns and labels:
Type in all cases: functional
Staphylococcus aureus [1] = assay: Antibacterial activity against Staphylococcus aureus at 100 ug after 24 hrs by agar well diffusion method; settings: for zone of inhibition at 100 µg/disc: read-out: DIZ
Bacillus subtilis [2] = assay: Antibacterial activity against Bacillus subtilis at 100 ug after 24 hrs by agar well diffusion method; settings: for zone of inhibition at 100 µg/disc: read-out: DIZ
Pseudomonas aeruginosa [3] = assay: Bactericidal activity against Pseudomonas aeruginosa after 24 hrs by broth dilution method
Klebsiella pneumoniae [4] = assay: Bactericidal activity against Klebsiella pneumoniae after 24 hrs by broth dilution method
Bacillus subtilis [5] = assay: Bactericidal activity against Bacillus subtilis after 24 hrs by broth dilution method
Staphylococcus aureus [6] = assay: Antibacterial activity against Staphylococcus aureus assessed at 50 ug after 24 hrs by agar well diffusion method; settings: for zone of inhibition at 50 µg/disc: read-out: DIZ
Pseudomonas aeruginosa [7] = assay: Antibacterial activity against Pseudomonas aeruginosa at 50 ug after 24 hrs by agar well diffusion method; settings: for zone of inhibition at 50 µg/disc: read-out: DIZ
Klebsiella pneumoniae [8] = assay: Antibacterial activity against Klebsiella pneumoniae at 100 ug after 24 hrs by agar well diffusion method; settings: for zone of inhibition at 100 µg/disc: read-out: DIZ
Klebsiella pneumoniae [9] = assay: Antibacterial activity against Klebsiella pneumoniae at 50 ug after 24 hrs by agar well diffusion method; settings: for zone of inhibition at 50 µg/disc: read-out: DIZ
Bacillus subtilis [10] = assay: Antibacterial activity against Bacillus subtilis at 50 ug after 24 hrs by agar well diffusion method; settings: for zone of inhibition at 50 µg/disc: read-out: DIZ
Pseudomonas aeruginosa [11] = assay: Antibacterial activity against Pseudomonas aeruginosa at 100 ug after 24 hrs by agar well diffusion method; settings: for zone of inhibition at 100 µg/disc: read-out: DIZ
Staphylococcus aureus [12] = assay: Antibacterial activity against Staphylococcus aureus at 35 degC after 24 hrs by broth dilution method
Aspergillus niger [13] = assay: Fungicidal activity against Aspergillus niger after 48 hrs by broth dilution method
Aspergillus niger [14] = assay: Antifungal activity against Aspergillus niger at 50 ug after 48 hrs by agar well diffusion method; settings: for zone of inhibition at 50 µg/disc: read-out: DIZ
Aspergillus niger [15] = assay: Antifungal activity against Aspergillus niger at 100 ug after 48 hrs by agar well diffusion method; settings: for zone of inhibition at 100 µg/disc: read-out: DIZ
Penicillium chrysogenum [16] = assay: Antifungal activity against Penicillium chrysogenum at 100 ug after 48 hrs by agar well diffusion method; settings: for zone of inhibition at 100 µg/disc: read-out: DIZ
Penicillium chrysogenum [17] = assay: Fungicidal activity against Penicillium chrysogenum after 48 hrs by broth dilution method
Penicillium chrysogenum [18] = assay: Antifungal activity against Penicillium chrysogenum at 50 ug after 48 hrs by agar well diffusion method; settings: for zone of inhibition at 50 µg/disc: read-out: DIZ
Aspergillus niger [19] = assay: Fungicidal activity against Aspergillus niger after 48 hrs by NCCLS M27-P broth dilution method
Penicillium chrysogenum [20] = assay: Fungicidal activity against Penicillium chrysogenum after 48 hrs by NCCLS M27-P broth dilution method
Klebsiella pneumoniae [21] = assay: Bactericidal activity against Klebsiella pneumoniae after 24 hrs by NCCLS M7-A3 method
Staphylococcus aureus [22] = assay: Antibacterial activity against Staphylococcus aureus at 35 degC after 24 hrs by NCCLS M7-A3 method
Bacillus subtilis [23] = assay: Bactericidal activity against Bacillus subtilis after 24 hrs by NCCLS M7-A3 method
Pseudomonas aeruginosa [24] = assay: Bactericidal activity against Pseudomonas aeruginosa after 24 hrs by NCCLS M7-A3 method

Compound | MIC (Staphylococcus aureus [12]) | zone of inhibition at 100 µg/disc (Staphylococcus aureus [1]) | zone of inhibition at 100 µg/disc (Bacillus subtilis [2]) | MIC (Pseudomonas aeruginosa [3]) | MIC (Klebsiella pneumoniae [4]) | MIC (Bacillus subtilis [5]) | zone of inhibition at 50 µg/disc (Staphylococcus aureus [6]) | zone of inhibition at 50 µg/disc (Pseudomonas aeruginosa [7]) | zone of inhibition at 100 µg/disc (Klebsiella pneumoniae [8]) | zone of inhibition at 50 µg/disc (Klebsiella pneumoniae [9]) | zone of inhibition at 50 µg/disc (Bacillus subtilis [10]) | zone of inhibition at 100 µg/disc (Pseudomonas aeruginosa [11]) | MIC (Aspergillus niger [13]) | zone of inhibition at 50 µg/disc (Aspergillus niger [14]) | zone of inhibition at 100 µg/disc (Aspergillus niger [15]) | zone of inhibition at 100 µg/disc (Penicillium chrysogenum [16]) | MIC (Penicillium chrysogenum [17]) | zone of inhibition at 50 µg/disc (Penicillium chrysogenum [18]) | MFC (Aspergillus niger [19]) | MFC (Penicillium chrysogenum [20]) | also measured
CC(=O)N1CCN(c2ccc(OCC3COC(Cn4ccnc4)(c4ccc(Cl)cc4Cl)O3)cc2)CC1 (configuration not stated) [KETOCONAZOLE] |  |  |  |  |  |  |  |  |  |  |  |  | 6.25 µg | 33 mm | 36 mm | 38 mm | 12.5 µg | 36 mm |  |  | 
O=C(Nc1nc(-c2ccc(Cl)cc2)c[nH]1)c1n[nH]cc1-c1ccccc1 | 50 µg | 34 mm | 35 mm | 25 µg | 50 µg | 12.5 µg | 31 mm | 30 mm | 39 mm | 37 mm | 33 mm | 32 mm | 12.5 µg | 30 mm | 34 mm | 37 mm | 25 µg | 33 mm | 50 µg | 100 µg | MBC (Klebsiella pneumoniae [21]): 200 µg; MBC (Staphylococcus aureus [22]): 200 µg; MBC (Bacillus subtilis [23]): 50 µg; MBC (Pseudomonas aeruginosa [24]): 100 µg
Cc1ccc(-c2coc(NC(=O)C3=NNCC3c3ccccc3)n2)cc1 (configuration not stated) |  |  |  |  |  |  |  |  |  |  |  |  |  |  |  |  |  |  |  |  | diameter of the inhibition zone (DIZ) (Staphylococcus aureus [1]): inactive; diameter of the inhibition zone (DIZ) (Bacillus subtilis [2]): inactive; diameter of the inhibition zone (DIZ) (Aspergillus niger [14]): inactive; diameter of the inhibition zone (DIZ) (Aspergillus niger [15]): inactive; diameter of the inhibition zone (DIZ) (Staphylococcus aureus [6]): inactive; diameter of the inhibition zone (DIZ) (Pseudomonas aeruginosa [7]): inactive; diameter of the inhibition zone (DIZ) (Penicillium chrysogenum [16]): inactive; diameter of the inhibition zone (DIZ) (Klebsiella pneumoniae [8]): inactive; diameter of the inhibition zone (DIZ) (Klebsiella pneumoniae [9]): inactive; diameter of the inhibition zone (DIZ) (Bacillus subtilis [10]): inactive; diameter of the inhibition zone (DIZ) (Penicillium chrysogenum [18]): inactive; diameter of the inhibition zone (DIZ) (Pseudomonas aeruginosa [11]): inactive

Now from value to compound, other results behind:

MIC (Staphylococcus aureus [12]) | Compound | zone of inhibition at 100 µg/disc (Staphylococcus aureus [1]) | zone of inhibition at 100 µg/disc (Bacillus subtilis [2]) | MIC (Pseudomonas aeruginosa [3]) | MIC (Klebsiella pneumoniae [4]) | MIC (Bacillus subtilis [5]) | zone of inhibition at 50 µg/disc (Staphylococcus aureus [6]) | zone of inhibition at 50 µg/disc (Pseudomonas aeruginosa [7]) | zone of inhibition at 100 µg/disc (Klebsiella pneumoniae [8]) | zone of inhibition at 50 µg/disc (Klebsiella pneumoniae [9]) | zone of inhibition at 50 µg/disc (Bacillus subtilis [10]) | zone of inhibition at 100 µg/disc (Pseudomonas aeruginosa [11]) | MIC (Aspergillus niger [13]) | zone of inhibition at 50 µg/disc (Aspergillus niger [14]) | zone of inhibition at 100 µg/disc (Aspergillus niger [15]) | zone of inhibition at 100 µg/disc (Penicillium chrysogenum [16]) | MIC (Penicillium chrysogenum [17]) | zone of inhibition at 50 µg/disc (Penicillium chrysogenum [18]) | MFC (Aspergillus niger [19]) | MFC (Penicillium chrysogenum [20]) | also measured
6.25 µg | O=C(N[C@H](CO)[C@H](O)c1ccc([N+](=O)[O-])cc1)C(Cl)Cl [CHLORAMPHENICOL] | 35 mm | 38 mm | 6.25 µg | 12.5 µg | 6.25 µg | 33 mm | 27 mm | 42 mm | 40 mm | 34 mm | 30 mm |  |  |  |  |  |  |  |  | 
50 µg | O=C(Nc1nc(-c2ccc(Cl)cc2)c[nH]1)c1c[nH]cc1-c1ccccc1 | 33 mm | 33 mm | 50 µg | 100 µg | 25 µg | 30 mm | 25 mm | 36 mm | 34 mm | 29 mm | 28 mm | 25 µg | 32 mm | 34 mm | 36 mm | 50 µg | 33 mm | 100 µg | >200 µg | MBC (Klebsiella pneumoniae [21]): >200 µg; MBC (Staphylococcus aureus [22]): 200 µg; MBC (Bacillus subtilis [23]): 100 µg; MBC (Pseudomonas aeruginosa [24]): >200 µg
12.5 µg | O=C(/C=C/c1ccccc1)Nc1nc(-c2ccc(Cl)cc2)c[nH]1 | 35 mm | 38 mm | 12.5 µg | 25 µg | 12.5 µg | 32 mm | 31 mm | 40 mm | 39 mm | 36 mm | 33 mm | 12.5 µg | 32 mm | 34 mm | 38 mm | 25 µg | 35 mm | 100 µg | 50 µg | MBC (Klebsiella pneumoniae [21]): 100 µg; MBC (Staphylococcus aureus [22]): 50 µg; MBC (Bacillus subtilis [23]): 25 µg; MBC (Pseudomonas aeruginosa [24]): 50 µg
